Data taken from the supplement of paper PMC10307832.

Tests used:
Assay in all cases: relative viability (nuclei count vs DMSO), 5 days (fraction); higher = more cells survive
[1] = system: HCC-15
Outline: (§1)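 Lung cancer cell lines in 1536-well plates were dosed by pin tool the day after seeding, either with one drug alone or with a fixed anchor-drug dose plus five library-drug doses (not always all listed) in √10 steps. After 5 days, cells were fixed and their nuclei stained in one step (final 0.05% Triton X-100, 1% formaldehyde, 1 ug/ml Hoechst), then counted on 4× images. Relative viability is the nuclei count in treated wells divided by that in vehicle wells. Values are medians of duplicate plates.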

[2] = system: LXF-289
Outline: as §1

[3] = system: LC-2-ad
Outline: as §1

[4] = system: NCI-H2126
Outline: as §1

[5] = system: HCC-78
Outline: as §1

[6] = system: NCI-H358
Outline: as §1

[7] = system: RERF-LC-KJ
Outline: as §1

[8] = system: A-427
Outline: as §1

[9] = system: NCI-H1734
Outline: as §1

[10] = system: PC-3 [JPC-3]
Outline: as §1

[11] = system: SK-LU-1
Outline: as §1

[12] = system: HOP-62
Outline: as §1

[13] = system: NCI-H647
Outline: as §1

[14] = system: NCI-H1792
Outline: as §1

[15] = system: NCI-H1915
Outline: as §1

[16] = system: NCI-H2228
Outline: as §1

[17] = system: NCI-H1755
Outline: as §1

[18] = system: NCI-H2347
Outline: as §1

[19] = system: NCI-H1975
Outline: as §1

[20] = system: SW 1573
Outline: as §1

Question: How did the relative viability ([1]; first compound 0.01 µM) turn out when `CCN(CC)CCCCNc1ncc2cc(-c3cc(OC)cc(OC)c3)c(NC(=O)NC(C)(C)C)nc2n1` + CS(=O)(=O)CCNCc1ccc(-c2ccc3ncnc(Nc4ccc(OCc5cccc(F)c5)c(Cl)c4)c3c2)o1 [Lapatinib] (partner 2 µM) was run?
Answer: Its relative viability is 0.871.

Question: What about the relative viability ([1]; first compound 0.03162 µM) of the same compound?
Answer: The relative viability was 0.944.

Question: And the relative viability ([1]; first compound 0.1 µM)?
Answer: Its relative viability is 0.83.

Question: What about the relative viability ([1]; first compound 0.3162 µM) of the same compound?
Answer: The relative viability was 1.07.

Question: And the relative viability ([1]; first compound 1 µM)?
Answer: Its relative viability is 0.779.

Question: And the relative viability ([2]; first compound 0.01 µM)?
Answer: The relative viability was 0.893.

Question: And the relative viability ([2]; first compound 0.03162 µM)?
Answer: The relative viability was 0.944.

Question: And the relative viability ([2]; first compound 0.1 µM)?
Answer: The relative viability was 0.941.

Question: And the relative viability ([2]; first compound 0.3162 µM)?
Answer: The relative viability was 0.865.

Question: What about the relative viability ([2]; first compound 1 µM) of the same compound?
Answer: Its relative viability is 0.599.

Question: And the relative viability ([3]; first compound 0.01 µM)?
Answer: The relative viability was 1.05.

Question: And the relative viability ([3]; first compound 0.03162 µM)?
Answer: Its relative viability is 1.

Question: And the relative viability ([3]; first compound 0.1 µM)?
Answer: The relative viability was 1.22.

Question: And the relative viability ([3]; first compound 0.3162 µM)?
Answer: The relative viability was 1.12.

Question: And the relative viability ([3]; first compound 1 µM)?
Answer: The relative viability was 0.917.

Question: What about the relative viability ([4]; first compound 0.01 µM) of the same compound?
Answer: The relative viability was 0.786.

Question: What about the relative viability ([4]; first compound 0.03162 µM) of the same compound?
Answer: Its relative viability is 0.72.

Question: What about the relative viability ([4]; first compound 0.1 µM) of the same compound?
Answer: The relative viability was 0.796.

Question: What about the relative viability ([4]; first compound 0.3162 µM) of the same compound?
Answer: Its relative viability is 0.808.

Question: What about the relative viability ([4]; first compound 1 µM) of the same compound?
Answer: Its relative viability is 0.726.

Question: And the relative viability ([5]; first compound 0.03162 µM)?
Answer: Its relative viability is 1.09.

Question: And the relative viability ([5]; first compound 0.1 µM)?
Answer: Its relative viability is 1.09.

Question: What about the relative viability ([5]; first compound 0.3162 µM) of the same compound?
Answer: Its relative viability is 0.87.

Question: What about the relative viability ([5]; first compound 1 µM) of the same compound?
Answer: The relative viability was 0.748.

Question: What about the relative viability ([6]; first compound 0.01 µM) of the same compound?
Answer: Its relative viability is 0.449.

Question: What about the relative viability ([6]; first compound 0.03162 µM) of the same compound?
Answer: The relative viability was 0.484.

Question: And the relative viability ([6]; first compound 0.1 µM)?
Answer: Its relative viability is 0.457.

Question: What about the relative viability ([6]; first compound 0.3162 µM) of the same compound?
Answer: The relative viability was 0.498.

Question: And the relative viability ([6]; first compound 1 µM)?
Answer: Its relative viability is 0.406.

Question: What about the relative viability ([7]; first compound 0.01 µM) of the same compound?
Answer: Its relative viability is 0.854.

Question: And the relative viability ([7]; first compound 0.03162 µM)?
Answer: Its relative viability is 0.893.

Question: And the relative viability ([7]; first compound 0.1 µM)?
Answer: Its relative viability is 0.907.

Question: And the relative viability ([7]; first compound 0.3162 µM)?
Answer: The relative viability was 0.949.

Question: What about the relative viability ([7]; first compound 1 µM) of the same compound?
Answer: The relative viability was 0.879.

Question: What about the relative viability ([8]; first compound 0.01 µM) of the same compound?
Answer: The relative viability was 1.15.

Question: What about the relative viability ([8]; first compound 0.03162 µM) of the same compound?
Answer: Its relative viability is 0.971.

Question: And the relative viability ([8]; first compound 0.1 µM)?
Answer: The relative viability was 1.08.

Question: And the relative viability ([8]; first compound 0.3162 µM)?
Answer: The relative viability was 1.1.

Question: What about the relative viability ([8]; first compound 1 µM) of the same compound?
Answer: The relative viability was 0.899.

Question: What about the relative viability ([9]; first compound 0.01 µM) of the same compound?
Answer: The relative viability was 1.06.

Question: What about the relative viability ([9]; first compound 0.03162 µM) of the same compound?
Answer: Its relative viability is 1.2.

Question: What about the relative viability ([9]; first compound 0.1 µM) of the same compound?
Answer: The relative viability was 1.39.

Question: What about the relative viability ([9]; first compound 0.3162 µM) of the same compound?
Answer: Its relative viability is 1.13.

Question: What about the relative viability ([9]; first compound 1 µM) of the same compound?
Answer: The relative viability was 1.02.

Question: What about the relative viability ([10]; first compound 0.01 µM) of the same compound?
Answer: Its relative viability is 0.479.

Question: And the relative viability ([10]; first compound 0.03162 µM)?
Answer: The relative viability was 0.453.

Question: And the relative viability ([10]; first compound 0.1 µM)?
Answer: The relative viability was 0.519.

Question: And the relative viability ([10]; first compound 0.3162 µM)?
Answer: Its relative viability is 0.538.

Question: And the relative viability ([10]; first compound 1 µM)?
Answer: Its relative viability is 0.446.

Question: What about the relative viability ([11]; first compound 0.01 µM) of the same compound?
Answer: The relative viability was 0.985.

Question: What about the relative viability ([11]; first compound 0.03162 µM) of the same compound?
Answer: The relative viability was 0.975.

Question: What about the relative viability ([11]; first compound 0.1 µM) of the same compound?
Answer: The relative viability was 0.947.

Question: What about the relative viability ([11]; first compound 0.3162 µM) of the same compound?
Answer: The relative viability was 1.2.

Question: What about the relative viability ([11]; first compound 1 µM) of the same compound?
Answer: The relative viability was 0.638.

Question: What about the relative viability ([12]; first compound 0.01 µM) of the same compound?
Answer: The relative viability was 1.01.

Question: What about the relative viability ([12]; first compound 0.03162 µM) of the same compound?
Answer: The relative viability was 1.16.

Question: What about the relative viability ([12]; first compound 0.1 µM) of the same compound?
Answer: Its relative viability is 1.19.

Question: And the relative viability ([12]; first compound 0.3162 µM)?
Answer: The relative viability was 1.09.

Question: And the relative viability ([12]; first compound 1 µM)?
Answer: The relative viability was 1.33.

Question: What about the relative viability ([13]; first compound 0.01 µM) of the same compound?
Answer: The relative viability was 1.22.

Question: And the relative viability ([13]; first compound 0.03162 µM)?
Answer: The relative viability was 1.25.

Question: And the relative viability ([13]; first compound 0.1 µM)?
Answer: The relative viability was 1.28.

Question: What about the relative viability ([13]; first compound 0.3162 µM) of the same compound?
Answer: The relative viability was 1.48.

Question: And the relative viability ([13]; first compound 1 µM)?
Answer: Its relative viability is 0.493.

Question: And the relative viability ([14]; first compound 0.01 µM)?
Answer: The relative viability was 0.97.

Question: What about the relative viability ([14]; first compound 0.03162 µM) of the same compound?
Answer: The relative viability was 0.886.

Question: What about the relative viability ([14]; first compound 0.1 µM) of the same compound?
Answer: The relative viability was 1.21.

Question: What about the relative viability ([14]; first compound 0.3162 µM) of the same compound?
Answer: Its relative viability is 1.64.

Question: And the relative viability ([14]; first compound 1 µM)?
Answer: The relative viability was 0.433.

Question: And the relative viability ([15]; first compound 0.01 µM)?
Answer: The relative viability was 1.1.

Question: What about the relative viability ([15]; first compound 0.03162 µM) of the same compound?
Answer: The relative viability was 1.03.

Question: And the relative viability ([15]; first compound 0.1 µM)?
Answer: Its relative viability is 0.775.

Question: And the relative viability ([15]; first compound 0.3162 µM)?
Answer: The relative viability was 1.1.

Question: And the relative viability ([15]; first compound 1 µM)?
Answer: Its relative viability is 0.971.

Question: And the relative viability ([16]; first compound 0.01 µM)?
Answer: The relative viability was 1.06.

Question: What about the relative viability ([16]; first compound 0.03162 µM) of the same compound?
Answer: The relative viability was 1.35.

Question: What about the relative viability ([16]; first compound 0.1 µM) of the same compound?
Answer: The relative viability was 1.19.

Question: What about the relative viability ([16]; first compound 0.3162 µM) of the same compound?
Answer: The relative viability was 1.22.

Question: And the relative viability ([16]; first compound 1 µM)?
Answer: Its relative viability is 0.74.

Question: And the relative viability ([17]; first compound 0.01 µM)?
Answer: Its relative viability is 1.12.

Question: And the relative viability ([17]; first compound 0.03162 µM)?
Answer: The relative viability was 1.06.

Question: What about the relative viability ([17]; first compound 0.1 µM) of the same compound?
Answer: The relative viability was 1.04.

Question: And the relative viability ([17]; first compound 0.3162 µM)?
Answer: Its relative viability is 1.16.

Question: What about the relative viability ([17]; first compound 1 µM) of the same compound?
Answer: Its relative viability is 0.793.

Question: What about the relative viability ([18]; first compound 0.01 µM) of the same compound?
Answer: The relative viability was 0.923.

Question: What about the relative viability ([18]; first compound 0.03162 µM) of the same compound?
Answer: Its relative viability is 0.79.

Question: What about the relative viability ([18]; first compound 0.1 µM) of the same compound?
Answer: Its relative viability is 1.06.

Question: And the relative viability ([18]; first compound 0.3162 µM)?
Answer: Its relative viability is 0.878.

Question: What about the relative viability ([18]; first compound 1 µM) of the same compound?
Answer: Its relative viability is 0.931.

Question: What about the relative viability ([19]; first compound 0.01 µM) of the same compound?
Answer: The relative viability was 1.02.

Question: What about the relative viability ([19]; first compound 0.03162 µM) of the same compound?
Answer: Its relative viability is 0.882.

Question: What about the relative viability ([19]; first compound 0.1 µM) of the same compound?
Answer: The relative viability was 0.952.

Question: And the relative viability ([19]; first compound 0.3162 µM)?
Answer: The relative viability was 1.12.

Question: And the relative viability ([19]; first compound 1 µM)?
Answer: The relative viability was 0.693.

Question: And the relative viability ([20]; first compound 0.01 µM)?
Answer: The relative viability was 1.11.

Question: And the relative viability ([20]; first compound 0.03162 µM)?
Answer: The relative viability was 1.1.

Question: And the relative viability ([20]; first compound 0.1 µM)?
Answer: The relative viability was 1.19.

Question: And the relative viability ([20]; first compound 0.3162 µM)?
Answer: Its relative viability is 0.978.

Question: What about the relative viability ([20]; first compound 1 µM) of the same compound?
Answer: Its relative viability is 1.12.
